Source: US20260262647A1, “Synergistic Compositions Containing Guanidine” (Thor GmbH, priority 2023, published 2026)
Where “and” joins values, the source holds several entries; their conditions need not be identical. Equal entries are not always repeated.

Experiments:
Type in all cases: cell-based
[1] = test system: Pseudomonas putida DSM 115323; test: Minimum inhibitory concentrations and synergy index in Müller-Hinton broth
Protocol: (§1) Test organisms used were Gram-negative bacterial species from the group of pseudomonads, Pseudomonas putida DSM 115323 and Pseudomonas spec. DSM 115322. For this purpose, mixtures with different concentrations of the respective active substances were prepared and tested for their effect on the pseudomonads. The test was run in Müller-Hinton broth MHB with a cell density of 10^6 microbes per ml. When organic acids are used as a combination partner with the guanidine, MHB was adjusted to pH 5.5.
(§2) The incubation was run in microplates at 30° C. for 48 hours. After 48 hours, the batches were evaluated for turbidity resulting from growth, and optical density was additionally determined photometrically. In this way, the minimum inhibitory concentrations (MICs) of the two actives were determined individually and in combination.
(§3) The calculation was done according to the standard method of F. C. Kull et al., Applied Microbiology, vol. 9 (1961), p. 538.
(§4) This involves calculating the synergy index (SI) by the following formula:
(§5) [formula] • Qa=concentration of component A in the A+B mixture • QA=concentration of component A as the sole biocide • Qb=concentration of component B in the A+B mixture • QB=concentration of component B as the sole biocide
(§6) If the synergy index is greater than 1, this means that there is antagonism. If the synergy index assumes the value 1, this means that the effect of the two biocides/compounds is additive. If the synergy index assumes a value of less than 1, this means that there is synergism between the two biocides/compounds.

[2] = test system: Pseudomonas spec. DSM 115322; test: as above; conditions: for QA: Concentration of guanidine as the sole agent that shows an endpoint: guanidine (added as guanidine hydrochloride) alone, 48 hours at 30° C.
Protocol: as §1, §2, §3, §4, §5, §6

yeast mixture = test: Laundry detergent inoculated once with yeast mixture, semiquantitative growth evaluation; parameters: key: 0: No growth; Minimal growth, 1 to 10 colonies visible over the entire streak; 2: Light growth, maximum 100 colonies; Moderate growth, maximum 300 to 400 colonies; Uniform growth, >400 colonies, single colonies still clearly recognizable; 5: Heavy growth, too many colonies to count, but no growth over the entire streak; 6: Full growth, barely any single colonies still apparent, growth over the entire streak; conditions: Example 37, laundry detergent, +8000 ppm guanidine hydrochloride (4944 ppm guanidine)
Description: In examples 35 to 38 below, synergistic interaction between guanidine and antimicrobial substances with respect to microbial infestation was studied using an emulsion paint and a laundry detergent or cleaning composition by adding particular amounts of guanidine salts and isothiazolinones and examining their stability against microbial infestation: […] The laundry detergent was a heavy-duty laundry detergent without preservatives (pH 8.1), and the cleaning composition was an all-purpose detergent without preservatives (pH 7.6), each likewise made in the laboratory, without addition of the otherwise usual conventional preservatives. To each paint was added—individually and in combination—particular concentrations of guanidinium hydrochloride, benzisothiazolinone (BIT), and a mixture of chloromethylisothiazolinone (CIT) and methylisothiazolinone (MIT). The laundry detergent and the cleaning composition were admixed with particular concentrations of guanidinium hydrochloride and benzisothiazolinone (BIT). The resultant batches of the paint thus prepared were inoculated with a mixture of different bacteria species (bacteria mixture B); the batches of the laundry detergent and cleaning compositions thus prepared were inoculated with a yeast mixture. • Pichia manshurica DSM 12249 • Rhodotorula mucilaginosa DSM 12248 • Candida boidinii DSM 13622 • Candida albicans DSM 1386 […] Further steps for establishment of a cell count of the inoculum suspension of 10^8/ml were effected analogously to the production of the bacteria suspension. […] The streaked agar plates were then incubated at 30° C. for 48 hours (bacteria) or at 25° C. for 72 hours (yeasts). After incubation, the bacterial or yeast colonies that have grown on the agar plates were visually evaluated and quantified according to the following scheme: [table]

N=C(N)N [guanidine]
QA: Concentration of guanidine as the sole agent that shows an endpoint ([1]; guanidine (added as guanidine hydrochloride) alone, 48 hours at 30° C.): 6180 ppm
Synergy index Qa/QA + Qb/QB ([1]; guanidine and CIT, Qa, Qb): 1.00
QA: Concentration of guanidine as the sole agent that shows an endpoint ([2]; MHB adjusted to pH 5.5): 12359 ppm
QA: Concentration of guanidine as the sole agent that shows an endpoint ([2]; MHB): 9269 ppm and 9105 ppm
Synergy index Qa/QA + Qb/QB ([2]; guanidine and AEPD): 1.00
Synergy index Qa/QA + Qb/QB ([2]; guanidine and AMP): 1.00
Synergy index Qa/QA + Qb/QB ([2]; guanidine and BBIT): 1.00
Synergy index Qa/QA + Qb/QB ([2]; guanidine and BIT): 1.00
Synergy index Qa/QA + Qb/QB ([2]; guanidine and DBDCB): 1.00
Synergy index Qa/QA + Qb/QB ([2]; guanidine and DBNPA): 1.00
Synergy index Qa/QA + Qb/QB ([2]; guanidine and EDTA): 1.00
Synergy index Qa/QA + Qb/QB ([2]; guanidine and EHG): 1.00
Synergy index Qa/QA + Qb/QB ([2]; guanidine and HEDP): 1.00
Synergy index Qa/QA + Qb/QB ([2]; guanidine and IPBC): 1.00
Synergy index Qa/QA + Qb/QB ([2]; guanidine and MBIT): 1.00
Synergy index Qa/QA + Qb/QB ([2]; guanidine and MEA): 1.00
Synergy index Qa/QA + Qb/QB ([2]; guanidine and MIT): 1.00
Synergy index Qa/QA + Qb/QB ([2]; guanidine and OIT): 1.00
Synergy index Qa/QA + Qb/QB ([2]; guanidine and benzoic acid, pH 5.5): 1.00
Synergy index Qa/QA + Qb/QB ([2]; guanidine and benzyl alcohol): 1.00
Synergy index Qa/QA + Qb/QB ([2]; guanidine and bronopol): 1.00
Synergy index Qa/QA + Qb/QB ([2]; guanidine and citric acid, pH 5.5): 1.00
Synergy index Qa/QA + Qb/QB ([2]; guanidine and heptane-1,2-diol): 1.00
Synergy index Qa/QA + Qb/QB ([2]; guanidine and hexane-1,2-diol): 1.00
Synergy index Qa/QA + Qb/QB ([2]; guanidine and hexylglycerol): 1.00
Synergy index Qa/QA + Qb/QB ([2]; guanidine and isopropanol): 1.00
Synergy index Qa/QA + Qb/QB ([2]; guanidine and lactic acid, pH 5.5): 1.00
Synergy index Qa/QA + Qb/QB ([2]; guanidine and oPP): 1.00
Synergy index Qa/QA + Qb/QB ([2]; guanidine and octane-1,2-diol): 1.00
Synergy index Qa/QA + Qb/QB ([2]; guanidine and pentane-1,2-diol): 1.00
Synergy index Qa/QA + Qb/QB ([2]; guanidine and phenethyl alcohol): 1.00
Synergy index Qa/QA + Qb/QB ([2]; guanidine and phenoxyethanol): 1.00
Synergy index Qa/QA + Qb/QB ([2]; guanidine and phenylpropanol): 1.00
Synergy index Qa/QA + Qb/QB ([2]; guanidine and pyrithione): 1.00
Synergy index Qa/QA + Qb/QB ([2]; guanidine and salicylic acid, pH 5.5): 1.00
Synergy index Qa/QA + Qb/QB ([2]; guanidine and sorbic acid, pH 5.5): 1.00
Bacterial growth (yeast mixture; Day 1): 6
Bacterial growth (yeast mixture; Day 3): 6
